Tests used:
Type in all cases: biochemical
[1] = molecular target: T1, Lactobacillus pentosus NADH oxidase (Lp Nox) variant LP-3-EP (I158S-D177W-G178E-V240L-P362H-V395L), SEQ ID NO:7 (Lactiplantibacillus pentosus, UniProt A0A0U3FIG2, D177W/G178E/I158S/P362H/V240L/V395L); assay: Lp Nox enzymatic kinetics, cofactor oxidation at 340 nm, variant LP-3-EP
T1 construct: variant LP-3-EP
T1 sequence (A0A0U3FIG2 1-450 I158S/D177W/G178E/V240L/P362H/V395L): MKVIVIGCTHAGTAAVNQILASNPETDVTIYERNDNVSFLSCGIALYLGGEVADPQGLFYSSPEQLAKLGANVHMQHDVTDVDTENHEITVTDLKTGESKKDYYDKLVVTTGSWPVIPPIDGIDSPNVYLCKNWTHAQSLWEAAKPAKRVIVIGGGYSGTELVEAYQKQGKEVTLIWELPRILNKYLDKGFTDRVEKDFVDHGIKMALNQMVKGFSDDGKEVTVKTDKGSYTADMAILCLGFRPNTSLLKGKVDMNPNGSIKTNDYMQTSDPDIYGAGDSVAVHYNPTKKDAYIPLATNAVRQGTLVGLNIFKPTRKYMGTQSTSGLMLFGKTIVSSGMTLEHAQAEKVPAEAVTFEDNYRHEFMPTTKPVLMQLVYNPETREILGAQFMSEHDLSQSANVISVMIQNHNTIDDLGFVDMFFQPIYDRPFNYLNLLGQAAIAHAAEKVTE
Procedure: (§1) Protein Expression and Purification. Lp Nox wild type or variants (see Table 1) are expressed with E. coli BL21 (DE3) with plasmids inoculated in 2× YT media with 200 mg L^−1 ampicillin. Expression was carried out by inoculation of 20 mL 2× YT media supplied with antibiotics and an overnight culture incubated at 30 °C, 250 RPM with an OD600nm of 0.072. Cells were grown at 37 °C in 50 mL conical tubes, and the cultures were induced with 0.5 mM IPTG at an OD600nm of 0.6-1.0. The 20 mL culture was then incubated at 27 °C and 250 RPM for 24 h. After 24 h, cells were harvested for protein extraction (centrifugation at 4 °C, 3000 RPM, 20 min). Cell pellets were resuspended in Zymo His-Binding buffer (Zymo Research Corporation) supplied with 0.15 mM FAD, 1 μL/mL DNase (Sigma Aldrich) and 1 mM InSolution [COMPOUND LEFT OUT] (Sigma Aldrich). The resuspended cell mixture was added to 0.5 mL of 0.1 mm glass beads (Biospec) and homogenized using a benchtop homogenizer (MP Biomedicals). Cell debris was separated from the crude extract by centrifugation at 4 °C and 15,000 RPM for 5 min. Protein purification was performed using His-Spin Protein Miniprep (Zymo Research Corporation) according to the manufacturer's instructions. The concentrations of purified protein were quantified by a Bradford assay using BSA as a standard. Purified protein was stored in aliquots with 20% (v/v) glycerol at −80 °C.
(§2) NMNH generation. NMNH generation was performed in 20 mL reaction volumes in a 50 ml conical tube containing 200 mM Tris-Cl at pH 8.0, 100 mM sodium chloride, 3 mM potassium chloride, 200 mM glucose, and 20 m MNMN^+. The reaction was initiating by spiking 500 ng of purified Bacillus subtilis glucose dehydrogenase I195R8. The reaction was incubated at 30 °C until reaction progression stopped, approximately 6 h. Reaction progression was monitored by observing the increase in light absorption at 340 nm, corresponding to the reduction of NMN^+ to NMNH. Then, the solution was filtered through a 15 kD cutoff filter to remove the protein. To purify the NMNH, the flowthrough was mixed with HPLC-grade acetonitrile to a final concentration of 70% acetonitrile, and the solution was passed through a Phenomenex Strata NH2 (2 g/12 mL, 55 μm, 70 Å) solid phase extraction column. The column was washed twice with 4 mL of 70:30 acetonitrile:water, then twice with 4 mL of 50:50 acetonitrile:water, twice with 4 mL of 30:70 acetonitrile:water, twice with 4 mL of nanopurified water, and finally twice with 4 mL of methanol. To elute the NMNH from the column, 2 mL of a solution containing 50:50 ammonium hydroxide:methanol was added to the column and incubated for 3 minutes before eluting. The elution step was repeated until no NMNH remained in the flow through, as monitored by light absorption at 340 nm. The elution fractions containing NMNH were pooled and aliquoted in 1 mL volumes into clean tubes. The solutions were dried over air and stored at −80 °C until use.
(§3) Lp Nox Enzymatic Assays and Kinetic study with NMNH, NAD(P) H. The Lp Nox activity (see FIG. 4A) was determined by the change in light absorption at 340 nm at 37 °C in 50 mM Tris-Cl buffer pH 7.0. The reactions were started by adding the purified protein to the prewarmed 37 °C assay mixture containing 0.3 mM of respective cofactor. The absorbance change at 340 nm for NAD(P) H and NMNH was detected using a SpectraMax M3 microplate reader. For kinetics parameter determination (see Table 2), cofactor concentrations were varied from 0 to 2 mM and the results were fitted to the standard Michaelis-Menten equation or Lineweaver-Burk equation to acquire catalytic efficiencies (kcat/Km) when the cofactor concentration tested could not saturate the enzyme activity or during the presence of substrate inhibition. Cofactor concentration over 2 mM could not be measured accurately on M3 spectrometer due to detector absorbance saturation at 340 nm.

[2] = molecular target: T2, Lactobacillus pentosus NADH oxidase (Lp Nox) variant LP-7 (I158S-D177W-V240L), SEQ ID NO:3 (Lactiplantibacillus pentosus, UniProt A0A0U3FIG2, D177W/I158S/V240L); assay: Lp Nox enzymatic kinetics, cofactor oxidation at 340 nm, variant LP-7; conditions: role: cofactor; apparent; 50 mM Tris-HCl pH 7.0, 37 °C; cofactor 0 to 2 mM
T2 construct: variant LP-7
T2 sequence (A0A0U3FIG2 1-450 I158S/D177W/V240L): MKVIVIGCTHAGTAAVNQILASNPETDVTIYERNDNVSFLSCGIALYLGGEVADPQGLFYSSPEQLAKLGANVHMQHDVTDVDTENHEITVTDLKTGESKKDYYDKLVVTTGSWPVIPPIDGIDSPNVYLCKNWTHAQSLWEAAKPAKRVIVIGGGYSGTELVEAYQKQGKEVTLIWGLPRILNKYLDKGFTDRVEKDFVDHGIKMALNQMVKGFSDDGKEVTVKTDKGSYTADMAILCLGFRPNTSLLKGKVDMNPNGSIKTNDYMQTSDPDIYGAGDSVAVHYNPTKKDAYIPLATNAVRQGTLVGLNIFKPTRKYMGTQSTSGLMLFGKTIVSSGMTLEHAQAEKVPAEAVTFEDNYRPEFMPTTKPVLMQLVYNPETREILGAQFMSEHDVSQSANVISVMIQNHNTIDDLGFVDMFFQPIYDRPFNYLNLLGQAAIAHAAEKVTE
Procedure: as §1, §2, §3

[3] = molecular target: T3, Lactobacillus pentosus NADH oxidase (Lp Nox) variant LP-3 (I158S-D177W-G178E-V240L), SEQ ID NO:6 (Lactiplantibacillus pentosus, UniProt A0A0U3FIG2, D177W/G178E/I158S/V240L); assay: Lp Nox enzymatic kinetics, cofactor oxidation at 340 nm, variant LP-3; conditions: role: cofactor; apparent; 50 mM Tris-HCl pH 7.0, 37 °C; cofactor 0 to 2 mM
T3 construct: variant LP-3
T3 sequence (A0A0U3FIG2 1-450 I158S/D177W/G178E/V240L): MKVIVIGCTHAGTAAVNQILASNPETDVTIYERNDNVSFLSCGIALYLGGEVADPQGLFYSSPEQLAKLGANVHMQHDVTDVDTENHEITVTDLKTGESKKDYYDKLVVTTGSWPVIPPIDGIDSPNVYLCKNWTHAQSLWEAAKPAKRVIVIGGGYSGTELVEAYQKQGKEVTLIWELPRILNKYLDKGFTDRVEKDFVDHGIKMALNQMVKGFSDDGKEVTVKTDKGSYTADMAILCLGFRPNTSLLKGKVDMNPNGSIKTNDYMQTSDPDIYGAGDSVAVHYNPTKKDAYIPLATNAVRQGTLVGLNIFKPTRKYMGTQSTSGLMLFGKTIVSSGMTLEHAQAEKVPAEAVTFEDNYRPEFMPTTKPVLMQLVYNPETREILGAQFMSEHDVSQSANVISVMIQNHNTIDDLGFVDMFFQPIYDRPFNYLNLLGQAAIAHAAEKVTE
Procedure: as §1, §2, §3

[4] = molecular target: T4, Lactobacillus pentosus NADH oxidase (Lp Nox), wild type, SEQ ID NO:1 (Lactiplantibacillus pentosus, UniProt A0A0U3FIG2); assay: Lp Nox enzymatic kinetics, cofactor oxidation at 340 nm, wild type; conditions: role: cofactor; apparent; 50 mM Tris-HCl pH 7.0, 37 °C; cofactor 0 to 2 mM
T4 sequence (A0A0U3FIG2 1-450): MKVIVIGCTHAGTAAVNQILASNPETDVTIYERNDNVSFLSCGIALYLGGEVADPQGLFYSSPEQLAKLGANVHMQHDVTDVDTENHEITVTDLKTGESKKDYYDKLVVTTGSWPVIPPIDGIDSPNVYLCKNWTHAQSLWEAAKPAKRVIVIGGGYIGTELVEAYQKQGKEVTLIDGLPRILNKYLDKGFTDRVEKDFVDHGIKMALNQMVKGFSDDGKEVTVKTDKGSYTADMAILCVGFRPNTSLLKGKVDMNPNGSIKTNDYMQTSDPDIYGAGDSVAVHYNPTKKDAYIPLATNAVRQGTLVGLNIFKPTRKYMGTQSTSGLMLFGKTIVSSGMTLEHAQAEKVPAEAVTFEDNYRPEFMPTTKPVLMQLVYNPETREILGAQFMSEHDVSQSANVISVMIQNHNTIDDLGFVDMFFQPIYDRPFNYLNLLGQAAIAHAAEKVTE
Procedure: as §1
NMNH generation. NMNH generation was performed in 20 mL reaction volumes in a 50 ml conical tube containing 200 mM Tris-Cl at pH 8.0, 100 mM sodium chloride, 3 mM potassium chloride, 200 mM glucose, and 20 m MNMN^+. The reaction was initiating by spiking 500 ng of purified Bacillus subtilis glucose dehydrogenase I195R8. The reaction was incubated at 30 °C until reaction progression stopped, approximately 6 h. Reaction progression was monitored by observing the increase in light absorption at 340 nm, corresponding to the reduction of NMN^+ to NMNH. Then, the solution was filtered through a 15 kD cutoff filter to remove the protein. […] The elution step was repeated until no NMNH remained in the flow through, as monitored by light absorption at 340 nm. […]
Lp Nox Enzymatic Assays and Kinetic study with NMNH, NAD(P) H. The Lp Nox activity (see FIG. 4A) was determined by the change in light absorption at 340 nm at 37 °C in 50 mM Tris-Cl buffer pH 7.0. […] The absorbance change at 340 nm for NAD(P) H and NMNH was detected using a SpectraMax M3 microplate reader. […] Cofactor concentration over 2 mM could not be measured accurately on M3 spectrometer due to detector absorbance saturation at 340 nm.

In the case of `NC(=O)C1=CN([C@@H]2O[C@H](COP(=O)(O)OP(=O)(O)OC[C@H]3O[C@@H](n4cnc5c(N)ncnc54)[C@H](OP(=O)(O)O)[C@@H]3O)[C@@H](O)[C@H]2O)C=CC1` [NADPH, nicotinamide adenine dinucleotide phosphate], the kcat/Km ([1]; role: cofactor, 50 mM Tris-HCl pH 7.0, 37 °C, estimated based on kinetics under lower cofactor concentrations before inhibition was observed) is reported as 51 ± 3^c mM^−1s^−1, the “inhibition of LP 3-EP activity by the cofactor” value ([1]; role: inhibitor (cofactor inhibition), above 1 mM NADH or NADPH, fits poorly with the substrate inhibition rate equation) is reported as “strongly inhibited” and the Km [2] is reported as 890 ± 40 µM. For the same compound, the kcat [2] was 27 ± 2 s⁻¹, the kcat/Km [2] was 31000 ± 1000 M⁻¹ s⁻¹ and the Km [3] was 1100 ± 100 µM. For the same compound, the kcat [3] was 28 ± 1 s⁻¹, the kcat/Km [3] was 26000 ± 1000 M⁻¹ s⁻¹ and the Km [4] was 1900 ± 200 µM. It also gave a kcat [4] of 18 ± 2 s⁻¹ and a kcat/Km [4] of 9300 ± 200 M⁻¹ s⁻¹.
